Assay results published in patent publication US6420147B1, “Haloalkaliphilic microorganisms” (Genencor International, Inc., priority 1991, dated 2002).
Positions of bridges follow the written chain, without caps; N, C: chain ends. Non-standard residues stand in square brackets, D forms with d. Residues, ends and D or L forms follow the SMILES beside them. *: point of attachment. Ileψ(thiazoline)Cys = CC[C@H](C)[C@H](N)C1=N[C@H](C(=O)*)CS1; dOrn = NCCC[C@@H](N)C(=O)O

Experiments:
[1] = test system: Cluster 2 haloalkaliphilic bacteria; test: Antibiotic sensitivity, distribution of positive characters; assay type: cell-based; conditions: share of strains of cluster 2 (78.5% similarity level, SSM) scored positive = clear zone around antibiotic disk; Medium A agar, 37° C., up to 14 days
Protocol: (§1) A light suspension of bacteria in alkaline, saline, nutrient broth was spread on the surface of alkaline nutrient, saline agar (Medium A) and allowed to dry. Commercially available antibiotic susceptibility test disks (Oxoid or Mast Laboratories: Merseyside, U.K.) were applied to the agar surface. The bacteria were cultivated at 37° C. for up to 14 days. Clear zones around the antibiotic disks indicated sensitivity and were recorded as positive.

[2] = test system: Cluster 1 haloalkaliphilic bacteria; test: as above; assay type: cell-based; conditions: share of strains of cluster 1 (78.5% similarity level, SSM) scored positive = clear zone around antibiotic disk; Medium A agar, 37° C., up to 14 days
Protocol: as §1

Strain 31M.4 = test: Antibiotic sensitivity (susceptibility test disks on Medium A agar); assay type: cell-based; conditions: antibiotic disks (contents in Appendix C), 37° C., up to 14 days
Protocol: as §1

Strain 98Nt.4 = test: as above; assay type: cell-based; conditions: antibiotic disks (contents in Appendix C), 37° C., up to 14 days
Protocol: as §1

Strain 86M.4 = test: as above; assay type: cell-based; conditions: antibiotic disks (contents in Appendix C), 37° C., up to 14 days
Protocol: as §1

Strain 95LM.4 = test: as above; assay type: cell-based; conditions: antibiotic disks (contents in Appendix C), 37° C., up to 14 days
Protocol: as §1

Strain 103Nt.4 = test: as above; assay type: cell-based; conditions: antibiotic disks (contents in Appendix C), 37° C., up to 14 days
Protocol: as §1

Strain 93dLM.4 = test: as above; assay type: cell-based; conditions: antibiotic disks (contents in Appendix C), 37° C., up to 14 days
Protocol: as §1

[3] = test system: Cluster 3 haloalkaliphilic bacteria; test: Antibiotic sensitivity, distribution of positive characters; assay type: cell-based, haloalkaliphilic eubacteria; conditions: share of strains of cluster 3 (78.5% similarity level, SSM) scored positive = clear zone around antibiotic disk; Medium A agar, 37° C., up to 14 days
Protocol: as §1

[4] = test system: Cluster 4 haloalkaliphilic bacteria; test: as above; assay type: cell-based, haloalkaliphilic eubacteria; conditions: share of strains of cluster 4 (78.5% similarity level, SSM) scored positive = clear zone around antibiotic disk; Medium A agar, 37° C., up to 14 days
Protocol: as §1

Strain 931LM.4 = test: Antibiotic sensitivity (susceptibility test disks on Medium A agar); assay type: cell-based; conditions: antibiotic disks (contents in Appendix C), 37° C., up to 14 days
Protocol: as §1

Compound | Distribution of positive characters: antibiotic sensitivity, Cluster 2 [1] | Distribution of positive characters: antibiotic sensitivity, Cluster 1 [2] | Inhibition of growth by antibiotic (Strain 31M.4) | Inhibition of growth by antibiotic (Strain 98Nt.4) | Inhibition of growth by antibiotic (Strain 86M.4) | Inhibition of growth by antibiotic (Strain 95LM.4) | Inhibition of growth by antibiotic (Strain 103Nt.4) | Inhibition of growth by antibiotic (Strain 93dLM.4) | Distribution of positive characters: antibiotic sensitivity, Cluster 3 [3] | Distribution of positive characters: antibiotic sensitivity, Cluster 4 [4] | Inhibition of growth by antibiotic (Strain 931LM.4)
CC[C@H](C)[C@H](N)C1=N[C@H](C(=O)N[C@@H](CC(C)C)C(=O)N[C@H](CCC(=O)O)C(=O)N[C@H](C(=O)N[C@H]2CCCCNC(=O)[C@H](CC(N)=O)NC(=O)[C@@H](CC(=O)O)NC(=O)[C@H](Cc3cnc[nH]3)NC(=O)[C@@H](Cc3ccccc3)NC(=O)[C@H]([C@@H](C)CC)NC(=O)[C@@H](CCCN)NC2=O)[C@@H](C)CC)CS1 [bacitracin] ({Ileψ(thiazoline)Cys}-L[dE]IK[dOrn]I[dF]H[dD]N; lactam 4-C) | 82 | 100 | not inhibited | inhibited | inhibited | inhibited | not inhibited | inhibited | 100 | 100 | 
O=C(N[C@H](CO)[C@H](O)c1ccc([N+](=O)[O-])cc1)C(Cl)Cl [chloramphenicol] | 0 | 0 | inhibited | not inhibited | not inhibited | inhibited | not inhibited |  | 100 | 100 | inhibited
CC(=O)O[C@H]1C[C@@]2(C)[C@@H](C[C@@H](O)[C@H]3[C@@]4(C)CC[C@@H](O)[C@@H](C)[C@@H]4CC[C@@]32C)/C1=C(\CCC=C(C)C)C(=O)O [fusidic acid] | 9 | 14 | inhibited |  |  |  | not inhibited |  | 0 | 17 | inhibited
NC[C@H]1O[C@H](O[C@H]2[C@H](O)[C@@H](O[C@H]3O[C@H](CO)[C@@H](O)[C@H](N)[C@H]3O)[C@H](N)C[C@@H]2N)[C@H](O)[C@@H](O)[C@@H]1O [kanamycin] | 0 | 0 |  | not inhibited | not inhibited | not inhibited |  | not inhibited | 0 | 17 | 
COc1cccc(OC)c1C(=O)N[C@@H]1C(=O)N2[C@@H]1SC(C)(C)[C@@H]2C(=O)O [methicillin] | 0 | 0 | inhibited |  |  |  | not inhibited |  | 0 | 0 | inhibited
CCn1cc(C(=O)O)c(=O)c2ccc(C)nc21 [nalidixic acid] | 18 | 0 | inhibited |  |  |  | inhibited |  | 0 | 0 | inhibited
O=C1CN(/N=C/c2ccc([N+](=O)[O-])o2)C(=O)N1 [nitrofurantoin] |  |  |  |  |  |  |  |  |  |  | not inhibited
CO[C@H]1C[C@H](O[C@H]2[C@H](C)[C@@H](O[C@@H]3O[C@H](C)C[C@H](N(C)C)[C@H]3O)[C@@H](C)C[C@@]3(CO3)C(=O)[C@H](C)[C@@H](O)[C@@H](C)[C@@H](C)OC(=O)[C@@H]2C)O[C@@H](C)[C@@H]1O [oleandomycin] | 0 | 0 | inhibited | not inhibited | not inhibited | inhibited | not inhibited | inhibited | 100 | 100 | 
CC1(C)S[C@@H]2[C@H](NC(=O)Cc3ccccc3)C(=O)N2[C@H]1C(=O)O [penicillin G] |  |  | inhibited | not inhibited | not inhibited | inhibited | inhibited | inhibited |  |  | inhibited
CO[C@H]1/C=C/O[C@@]2(C)Oc3c(C)c(O)c4c(O)c(c(/C=N/N5CCN(C)CC5)c(O)c4c3C2=O)NC(=O)/C(C)=C\C=C\[C@H](C)[C@H](O)[C@@H](C)[C@@H](O)[C@@H](C)[C@H](OC(C)=O)[C@@H]1C [rifampicin] | 64 | 14 | not inhibited |  | not inhibited |  | not inhibited |  | 67 | 83 | 
Cc1cc(NS(=O)(=O)c2ccc(N)cc2)no1 [sulphamethoxazole] |  |  | not inhibited |  |  |  | inhibited |  |  |  | 
CN(C)[C@@H]1C(O)=C(C(N)=O)C(=O)[C@@]2(O)C(O)=C3C(=O)c4c(O)cccc4[C@@](C)(O)[C@H]3C[C@@H]12 [tetracycline] | 9 | 14 |  | not inhibited | not inhibited | not inhibited |  | not inhibited | 33 | 17 | 
COc1cc(Cc2cnc(N)nc2N)cc(OC)c1OC [trimethoprim] |  |  | not inhibited |  |  |  | inhibited |  |  |  | not inhibited
CN[C@H](CC(C)C)C(=O)N[C@H]1C(=O)N[C@@H](CC(N)=O)C(=O)N[C@H]2C(=O)N[C@H]3C(=O)N[C@H](C(=O)N[C@H](C(=O)O)c4cc(O)cc(O)c4-c4cc3ccc4O)[C@H](O)c3ccc(c(Cl)c3)Oc3cc2cc(c3O[C@@H]2O[C@H](CO)[C@@H](O)[C@H](O)[C@H]2O[C@H]2C[C@](C)(N)[C@H](O)[C@H](C)O2)Oc2ccc(cc2Cl)[C@H]1O [vancomycin] | 0 | 0 |  | not inhibited | not inhibited | inhibited | not inhibited | inhibited | 100 | 83 | 
Gentamycin | 0 | 0 |  |  |  |  |  |  | 67 | 50 | 
gentamicin |  |  | inhibited | not inhibited | not inhibited | not inhibited | not inhibited | inhibited |  |  | inhibited
neomycin | 0 | 0 |  | not inhibited | not inhibited | not inhibited | inhibited | not inhibited | 0 | 0 | 
polymixin | 0 | 0 | not inhibited | not inhibited | not inhibited | not inhibited | inhibited | not inhibited | 0 | 0 | 
